Counter-ions that a name gives are not always drawn.
Experiments:
5-HT1A receptors = target: T1, 5-HT1A receptors (Rattus norvegicus, UniProt P19327); experiment: Affinity to the 5-HT1A receptor: [3H]-8-OH-DPAT binding in hippocampus membranes; conditions: displacement of [3H]-8-OH-DPAT, hippocampus membranes of rats; Ki calculated from IC50
T1 construct: 5-HT1A receptors in hippocampus membranes of rats; from tissue; host or cells: rat hippocampus membranes
T1 sequence (P19327 1-422): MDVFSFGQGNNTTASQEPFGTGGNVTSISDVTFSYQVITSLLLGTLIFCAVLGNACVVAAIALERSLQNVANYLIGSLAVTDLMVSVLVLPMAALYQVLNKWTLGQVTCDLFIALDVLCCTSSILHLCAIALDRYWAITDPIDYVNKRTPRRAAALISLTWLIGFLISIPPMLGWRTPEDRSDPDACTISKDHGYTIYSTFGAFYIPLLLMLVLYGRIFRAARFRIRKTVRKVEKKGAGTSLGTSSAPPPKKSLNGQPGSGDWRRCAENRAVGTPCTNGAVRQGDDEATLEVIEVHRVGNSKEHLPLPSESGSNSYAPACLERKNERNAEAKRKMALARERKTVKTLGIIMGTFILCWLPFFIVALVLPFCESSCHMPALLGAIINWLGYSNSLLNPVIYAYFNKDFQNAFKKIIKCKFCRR
Protocol: 1. Affinity to the 5-HT1A Receptor
(Dompert et al., Naunyn-Schmiedeberg's Arch. Pharmacol. 1985, 328, 467-470).
In this test, binding of [^3H]-8-OH-DPAT to 5-HT1A receptors in hippocampus membranes of rats is measured.
In the binding test, IC50 values are determined which state at which concentration of test substance 50% of bound radio ligand is displaced. Taking into account the dissociation constants and the concentration of radio ligand, this is used to calculate the inhibition constant Ki.

Ki (5-HT1A receptors) [nM] | melting point [°C] | Structure (SMILES)
3.15 |  | COc1cc2c(cc1O)O[C@@H](CNCCCCN1C(=O)c3ccccc3S1(=O)=O)CC2 [Example 1, (R)-(−)-2-(4-{[(7-Hydroxy-6-methoxy-3,4-dihydro-2H-chromen-2-yl)methyl]-amino}butyl)-1,2-benzisothiazol-3(2H)-one 1,1-dioxide hydrochloride]
1.93 |  | O=C1c2ccccc2S(=O)(=O)N1CCCCNC[C@H]1CCc2cc(O)ccc2O1 [Example 2, 2-[4-({[(2R)-6-Hydroxy-3,4-dihydro-2H-chromen-2-yl]methyl}amino)butyl]-1,2-benzisothiazol-3(2H)-one 1,1-dioxide hydrochloride]
 | 220 to 222 | O=C1c2ccccc2S(=O)(=O)N1CCCCNC[C@H]1CCc2cc(O)ccc2O1 (as salt: hydrochloride) [Example 2, 2-[4-({[(2R)-6-Hydroxy-3,4-dihydro-2H-chromen-2-yl]methyl}amino)butyl]-1,2-benzisothiazol-3(2H)-one 1,1-dioxide hydrochloride]
